Data taken from patent publication US20260027128A1 (priority 2016, published 2026).
Where two headings read alike, the source gives them in different places.

Experiments:
[1] = Plasma analysis and pharmacokinetics in Gottingen minipigs after intranasal administration (Example 4); details: for bioavailability: Bioavailability (0-tlast), intranasal, minipig No. 2; for Cmax: Cmax of Remimazolam
male rats [2] = assay: Clinical observations in rats after intranasal or IV remimazolam (Example 1); format: in vivo, rat; details: intranasal dosing
Gottingen minipigs [3] = assay: Sedative effect score in Gottingen minipigs after single intranasal administration (Example 4); format: in vivo, minipig
[4] = study 32236, female minipigs, intravenous infusion 120 mg/kg; cited from earlier work
[5] = study Y08AG004, micropigs, cited from earlier work
[6] = Solubility of remimazolam in inhalation vehicle (Example 2); details: concentrations >25 mg/mL
[7] = Plasma levels of Remimazolam and its main metabolite CNS7054 in rats (Example 1)
male rats [8] = assay: Tolerability in rats: mortality, body weight, Irwin observations, body temperature, pupil size, gross pathology (Example 1)
[9] = Systemic and local tolerability (clinical signs, rhinoscopy, NOAEL) in Gottingen minipigs, single intranasal administration (Example 4); details: female, Gottingen, minipig, in vivo, inhaled or intranasal, 25 mg/animal
Gottingen minipigs [10] = assay: as above; details: minipigs
[11] = minipig animal no. 2, intranasal 25 mg
[12] = intranasal 25 mg Remimazolam/animal

**Q.** For `Cc1cnc2n1-c1ccc(Br)cc1C(c1ccccn1)=N[C@H]2CCC(=O)O` [CNS7054], which “tmax of the metabolite (CNS7054)” value ([1]; minipig animal no. 2, intranasal 25 mg Remimazolam) is on record?
**A.** The value was 15 min.

**Q.** What about the “tmax of the metabolite (CNS7054)” value ([1]; minipig animal nos. 1 and 3, intranasal 25 mg Remimazolam) of the same molecule?
**A.** Its value is 60 min.

**Q.** And the “Plasma level of metabolite CNS7054, GLP-validated method” value ([1]; minipigs, intranasal 25 mg Remimazolam, below LLOQ)?
**A.** Its value is under 100 ng/mL.

**Q.** With `COC(=O)CC[C@@H]1N=C(c2ccccn2)c2cc(Br)ccc2-n2c(C)cnc21` [Remimazolam, methyl 3-[(4S)-8-bromo-1-methyl-6-(pyridin-2-yl)-4H-imidazo[1,2-a][1,4]benzodiazepin-4-yl]propanoate] as the molecule, how does the “Time clinical observations were present following dosing” value (male rats [2]) read?
**A.** Its value is “up to 15 min”.

**Q.** And the “Sedative effects lasting up to” value (Gottingen minipigs [3]; [11])?
**A.** Its value is “up to 30 minutes”.

**Q.** And the “Start of sedative effects after administration” value (Gottingen minipigs [3]; [11])?
**A.** Its value is 5 min.

**Q.** What about the “Time of maximum sedative effect” value (Gottingen minipigs [3]; [11]) of the same molecule?
**A.** Its value is 10 minutes p.a.

**Q.** What about the Sedative effect (Gottingen minipigs [3]; minipig animal nos. 1 and 3, intranasal 25 mg, scores of zero recorded) of the same molecule?
**A.** The Sedative effect was “not affected”.

**Q.** And the AUC0-last [4]?
**A.** The AUC0-last was 18215.23 ng·h/mL.

**Q.** What about the AUC0-last/Dose [4] of the same molecule?
**A.** Its AUC0-last/Dose is 151.79 ng·kg·h/mL/mg.

**Q.** And the “AUC0-last (data are for 0→∞)” value ([5]; intravenous bolus 1 mg/kg)?
**A.** Its value is 293.3^2 ng*h/ml.

**Q.** What about the “AUC0-last/Dose (data are for 0→∞)” value ([5]; intravenous bolus 1 mg/kg) of the same molecule?
**A.** Its value is 293.3^2 ng*h*kg/ml/mg.

**Q.** And the “AUC0-last (data are for 0→∞)” value ([5]; intravenous infusion 2.4 mg/kg)?
**A.** The value was 676.7^2 ng*h/ml.

**Q.** What about the “AUC0-last/Dose (data are for 0→∞)” value ([5]; intravenous infusion 2.4 mg/kg) of the same molecule?
**A.** The value was 282.9^2 ng*h*kg/ml/mg.

**Q.** What about the “Solubility in a reasonable inhalation vehicle” value [6] of the same molecule?
**A.** The value was “could not be tested due to lack of solubility in a reasonable vehicle”.

**Q.** And the “Systemic exposure following intranasal administration” value [7]?
**A.** The value was “systemically exposed”.

**Q.** And the AUC(0-t) ([1]; female, Gottingen, minipig, plasma, inhaled or intranasal, 1.25 mg/kg, AUC0-last, present study (33659), minipig No. 2 (bw 20 kg), intranasal 1.25 mg/kg)?
**A.** Its AUC(0-t) is 19.9 ng·h/mL.

**Q.** And the bioavailability ([1]; female, Gottingen, minipig, plasma, inhaled or intranasal, 1.25 mg/kg, reference Y08AG004 bolus (micropigs))?
**A.** Its bioavailability is 5.43%.

**Q.** What about the bioavailability ([1]; female, Gottingen, minipig, plasma, inhaled or intranasal, 1.25 mg/kg, reference Y08AG004 infusion (micropigs)) of the same molecule?
**A.** Its bioavailability is 5.63%.

**Q.** What about the Tmax ([1]; female, Gottingen, minipig, plasma, inhaled or intranasal, 25 mg) of the same molecule?
**A.** The Tmax was 15 min.

**Q.** What about the AUC(0-t) ([1]; female, Gottingen, minipig, plasma, inhaled or intranasal, 25 mg, AUC0->last of Remimazolam, minipig animal no. 2, intranasal 25 mg) of the same molecule?
**A.** The AUC(0-t) was about 20 ng·h/mL.

**Q.** And the AUC(0-t) ([1]; female, Gottingen, minipig, plasma, inhaled or intranasal, 25 mg, AUC0->last of Remimazolam, minipig animal no. 3, intranasal 25 mg)?
**A.** The AUC(0-t) was 7 ng·h/mL.

**Q.** What about the Cmax ([1]; female, Gottingen, minipig, plasma, inhaled or intranasal, 25 mg, minipig animal no. 1, intranasal 25 mg, extrapolated below LLOQ) of the same molecule?
**A.** Its Cmax is 17.4 ng/mL.

**Q.** And the Cmax ([1]; female, Gottingen, minipig, plasma, inhaled or intranasal, 25 mg, minipig animal no. 2, intranasal 25 mg, within GLP-validated range)?
**A.** The Cmax was 50.4 ng/mL.

**Q.** What about the Cmax ([1]; female, Gottingen, minipig, plasma, inhaled or intranasal, 25 mg, minipig animal no. 3, intranasal 25 mg, extrapolated below LLOQ) of the same molecule?
**A.** Its Cmax is at most 8.6 ng/mL.

**Q.** And the bioavailability ([1]; female, Gottingen, minipig, plasma, other: intranasal, 1.25 mg/kg, reference study 32236 (IV infusion, minipigs))?
**A.** Its bioavailability is 10.5%.

**Q.** And the concentration at 0.25 h ([1]; female, Gottingen, minipig, plasma, other: intranasal, 25 mg/animal)?
**A.** The concentration at 0.25 h was 50.4 ng/mL.

**Q.** And the bioavailability ([1]; female, Gottingen, minipig, plasma, other: intranasal, 25 mg/animal, reference study 32236 (IV infusion, minipigs))?
**A.** The bioavailability was 10%.

**Q.** And the “Plasma level of Remimazolam (CNS7056), GLP-validated method” value ([1]; minipigs, intranasal 25 mg, all samples except animal no. 2 at 0.25 hours p.a., below LLOQ)?
**A.** Its value is under 20 ng/mL.

**Q.** And the AUC0-last/Dose ([1]; present study (33659), minipig No. 2, intranasal 1.25 mg/kg)?
**A.** Its AUC0-last/Dose is 15.94^1 ng*h*kg/ml/mg.

**Q.** And the Gross pathology (male rats [8]; male rats, Part B necropsy)?
**A.** The Gross pathology was “No test item-related gross findings were noted”.

**Q.** And the “Tolerability of intranasal administration” value (male rats [8]; rats)?
**A.** Its value is “well tolerated”.

**Q.** And the NOAEL [9]?
**A.** Its NOAEL is at least 1.25 mg/kg.

**Q.** What about the “NOAEL for local tolerability (nasal mucosa)” value (Gottingen minipigs [10]; dry drug product powder into one nostril) of the same molecule?
**A.** Its value is at least 25 mg/animal.

**Q.** What about the Body weight (Gottingen minipigs [10]; [12]) of the same molecule?
**A.** Its Body weight is “No test item-related influence on the body weight was observed”.

**Q.** What about the Clinical signs (Gottingen minipigs [10]; [12]) of the same molecule?
**A.** The Clinical signs was “No test item-related changes in behavior (except for sedation, see below) or external appearance were observed”.

**Q.** What about the “Food and drinking water consumption” value (Gottingen minipigs [10]; [12]) of the same molecule?
**A.** Its value is “No test item-related influence was noted”.

**Q.** And the Mortality (Gottingen minipigs [10]; [12])?
**A.** The Mortality was “None of the animals died”.

**Q.** And the “Rhinoscopy: changes of the nasal mucosa (erythema, eschar or oedema formation)” value (Gottingen minipigs [10]; nasal 25 mg Remimazolam/animal)?
**A.** The value was “No test item-related changes of the nasal mucosa”.
